How the values were obtained:
CTL clone RDR173 [1] = assay: IFN-γ ELISA: recognition by CTL clone RDR173 of target cells pulsed with long peptide (processing and presentation); format: cell-based, human
Procedure: FIG. 7. Pulsing target cells with the 23-mer peptide leads to efficient processing and presentation LB-ECGF-1H epitope. CD 14+ cells were pulsed with titrated concentrations of the 11- and 23-mer hECGF-1 peptide for 4 h at 37° C. Target cells (3×10^4) were incubated with CTL clone RDR173 (10^4) for 24 h at 37° C. Release of IFN-γ in the supernatant was measured by ELISA.
FIG. 8. The LB-ECGF-1H epitope can be processed and presented by various target cells upon pulsing with the 23-mer peptide. HLA-B7-positive EBV-LCL cells (EBV), peripheral blood lymphocytes (PBL), phytohemagglutinin activated T cells (PHA blasts), CD14^+ cells (CD14) and CD19^+ cells (CD19) were pulsed with titrated concentrations of the 23-mer HECGF-1 peptide for 4 h at 37° C. Target cells (3×10^4) were incubated with CTL clone RDR173 (10^4) for 24 h at 37° C. Release of IFN-γ in the supernatant was measured by ELISA.
The 23-mer peptide […] containing the epitope (depicted in bold) was synthesized. Target cells were pulsed with titrated concentration of the long peptide for 4 hours at 37° C. and tested for recognition by CTL clone RDR173.

CTL clone RDR173 [2] = assay: IFN-γ ELISA: recognition of peptide-pulsed donor-derived EBV-LCL cells by CTL clone RDR173; format: cell-based, human; conditions: peptide pulsed on donor-derived EBV-LCL cells 2 h 37° C., coculture 24 h
Procedure: FIG. 5. CTL clone RDR173 recognizes the minimal epitope RPHAIRRPLAL. (a) Overlapping 9-, 10- and 11-mer peptides (1 μg/ml) were pulsed on donor-derived EBV-LCL cells for 2 h at 37° C. Peptide-pulsed EBV-LCLs were cocultured with CTL clone RDR173 for 24 h. Release of IFN-γ in the supernatant was measured by ELISA. (b) Increasing concentrations of the patient-derived peptide RPHAIRRPLAL (filled symbols) and the donor-derived peptide RPRAIRRPLAL (open symbols) were pulsed on donor-derived EBV-LCL cells for 2 h at 37° C. Peptide-pulsed EBV-LCLs were cocultured with CTL clone RDR173 for 24 h. Release of IFN-γ in the supernatant was measured by ELISA.
EBV-LCL cells were seeded at 3×10^4 cells/well together with 5×10^3 T cells in 96-well round bottom plate. For blocking studies, target cells were preincubated with antibodies against HLA class I (w6/32), HLA class II (PdV5.2) or HLA-B/C alleles (B1.23.2) for 30 min at room temperature. After 24 h incubation at 37° C., release of IFN-γ in the supernatant was measured using standard ELISA (Sanguin, Amsterdam, the Netherlands).

Row | Sequence | Recognition by CTL clone RDR173 (IFN-γ release) after pulsing with long peptide (CTL clone RDR173 [1]; CD14+ cells pulsed 4 h at 37° C., titrated concentrations, FIG. 7) | Processing and presentation of the epitope by various target cells (CTL clone RDR173 [1]; EBV-LCL, PHA blast and CD14+ cells pulsed 4 h at 37° C., FIG. 8) | Recognition by CTL clone RDR173 (IFN-γ release) (CTL clone RDR173 [2])
1 | RPAGGARTLRPHAIRRPLALRRA [23-mer peptide] | efficient recognition | have the ability to process and present the epitope | 
2 | RPHAIRRPLAL [LB-ECGF-1H] |  |  | the epitope recognized by CTL clone RDR173
3 | RPRAIRPLAL [LB-ECGF-1R, donor-derived peptide variant with Arg instead of His] |  |  | not recognized

From patent publication US20090004162A1, “Hecgf-1 Related Polymorphisms and Applications Thereof” (priority 2005, published 2009)
